Results as given in ChEMBL document CHEMBL3244053, “Structural modification study of bis(substituted aminoalkylamino)anthraquinones. An evaluation of the relationship of the [2-[(2-hydroxyethyl)amino]ethyl]amino side chain with antineoplastic activity” (1979).
Active and inactive are the calls of the source. The rule behind the calls is not given here.

Tests used:
B16 [1] = experiment: Antineoplastic activity against mouse B16 cells allografted in BDF1 mouse assessed as survival at 2 mg/kg qd for 9 days; type: functional, organism-based; design: dose 2 mg/kg
B16 [2] = experiment: Antineoplastic activity against mouse B16 cells allografted in BDF1 mouse at 2 mg/kg qd for 9 days relative to control; type: functional
B16 [3] = experiment: Antineoplastic activity against mouse B16 cells allografted in BDF1 mouse assessed as survival at 1 mg/kg qd for 9 days; type: functional, organism-based; design: dose 1 mg/kg
B16 [4] = experiment: Antineoplastic activity against mouse B16 cells allografted in BDF1 mouse at 1 mg/kg qd for 9 days relative to control; type: functional
L1210 [5] = experiment: Antineoplastic activity against mouse L1210 cells allografted in CDF1 mouse assessed as survival at 4 mg/kg qd for 9 days; type: functional, organism-based; design: dose 4 mg/kg
L1210 [6] = experiment: Antineoplastic activity against mouse L1210 cells allografted in CDF1 mouse at 4 mg/kg qd for 9 days relative to control; type: functional
L1210 [7] = experiment: Antineoplastic activity against mouse L1210 cells allografted in CDF1 mouse assessed as survival at 2 mg/kg qd for 9 days; type: functional, organism-based; design: dose 2 mg/kg
L1210 [8] = experiment: Antineoplastic activity against mouse L1210 cells allografted in CDF1 mouse at 2 mg/kg qd for 9 days relative to control; type: functional
P388 [9] = experiment: Antineoplastic activity against mouse P388 cells allografted in CDF1 mouse assessed as survival at 2 mg/kg qd for 9 days; type: functional, organism-based; design: dose 2 mg/kg
P388 [10] = experiment: Antineoplastic activity against mouse P388 cells allografted in CDF1 mouse at 2 mg/kg qd for 9 days relative to control; type: functional
P388 [11] = experiment: Antineoplastic activity against mouse P388 cells allografted in CDF1 mouse assessed as survival at 1 mg/kg qd for 9 days; type: functional, organism-based; design: dose 1 mg/kg
P388 [12] = experiment: Antineoplastic activity against mouse P388 cells allografted in CDF1 mouse at 1 mg/kg qd for 9 days relative to control; type: functional
B16 [13] = experiment: Antineoplastic activity against mouse B16 cells allografted in BDF1 mouse assessed as survival at 16 mg/kg qd for 9 days; type: functional, organism-based; design: dose 16 mg/kg
B16 [14] = experiment: Antineoplastic activity against mouse B16 cells allografted in BDF1 mouse at 16 mg/kg qd for 9 days relative to control; type: functional
B16 [15] = experiment: Antineoplastic activity against mouse B16 cells allografted in BDF1 mouse assessed as survival at 8 mg/kg qd for 9 days; type: functional, organism-based; design: dose 8 mg/kg
B16 [16] = experiment: Antineoplastic activity against mouse B16 cells allografted in BDF1 mouse at 8 mg/kg qd for 9 days relative to control; type: functional
B16 [17] = experiment: Antineoplastic activity against mouse B16 cells allografted in BDF1 mouse assessed as survival at 4 mg/kg qd for 9 days; type: functional, organism-based; design: dose 4 mg/kg
B16 [18] = experiment: Antineoplastic activity against mouse B16 cells allografted in BDF1 mouse at 4 mg/kg qd for 9 days relative to control; type: functional
Colon 26 [19] = experiment: Antineoplastic activity against mouse Colon 26 cells allografted in CDF1 mouse assessed as survival at 8 mg/kg qd for 9 days; type: functional, organism-based; design: dose 8 mg/kg
Colon 26 [20] = experiment: Antineoplastic activity against mouse Colon 26 cells allografted in CDF1 mouse at 8 mg/kg qd for 9 days relative to control; type: functional
Colon 26 [21] = experiment: Antineoplastic activity against mouse Colon 26 cells allografted in CDF1 mouse assessed as survival at 4 mg/kg qd for 9 days; type: functional, organism-based; design: dose 4 mg/kg
Colon 26 [22] = experiment: Antineoplastic activity against mouse Colon 26 cells allografted in CDF1 mouse at 4 mg/kg qd for 9 days relative to control; type: functional
Colon 26 [23] = experiment: Antineoplastic activity against mouse Colon 26 cells allografted in CDF1 mouse assessed as survival at 2 mg/kg qd for 9 days; type: functional, organism-based; design: dose 2 mg/kg
Colon 26 [24] = experiment: Antineoplastic activity against mouse Colon 26 cells allografted in CDF1 mouse at 2 mg/kg qd for 9 days relative to control; type: functional
L1210 [25] = experiment: Antineoplastic activity against mouse L1210 cells allografted in CDF1 mouse assessed as survival at 16 mg/kg qd for 9 days; type: functional, organism-based; design: dose 16 mg/kg
L1210 [26] = experiment: Antineoplastic activity against mouse L1210 cells allografted in CDF1 mouse at 16 mg/kg qd for 9 days relative to control; type: functional
L1210 [27] = experiment: Antineoplastic activity against mouse L1210 cells allografted in CDF1 mouse assessed as survival at 8 mg/kg qd for 9 days; type: functional, organism-based; design: dose 8 mg/kg
L1210 [28] = experiment: Antineoplastic activity against mouse L1210 cells allografted in CDF1 mouse at 8 mg/kg qd for 9 days relative to control; type: functional
P388 [29] = experiment: Antineoplastic activity against mouse P388 cells allografted in CDF1 mouse assessed as survival at 16 mg/kg qd for 9 days; type: functional, organism-based; design: dose 16 mg/kg
P388 [30] = experiment: Antineoplastic activity against mouse P388 cells allografted in CDF1 mouse at 16 mg/kg qd for 9 days relative to control; type: functional
P388 [31] = experiment: Antineoplastic activity against mouse P388 cells allografted in CDF1 mouse assessed as survival at 8 mg/kg qd for 9 days; type: functional, organism-based; design: dose 8 mg/kg
P388 [32] = experiment: Antineoplastic activity against mouse P388 cells allografted in CDF1 mouse at 8 mg/kg qd for 9 days relative to control; type: functional
P388 [33] = experiment: Antineoplastic activity against mouse P388 cells allografted in CDF1 mouse assessed as survival at 4 mg/kg qd for 9 days; type: functional, organism-based; design: dose 4 mg/kg
P388 [34] = experiment: Antineoplastic activity against mouse P388 cells allografted in CDF1 mouse at 4 mg/kg qd for 9 days relative to control; type: functional

`O=C1c2ccccc2C(=O)c2c(NCCNCCO)ccc(NCCNCCO)c21` [AMETANTRONE] was tested, and the Activity (B16 [1]) was “Active”, the T/C (B16 [2]) was 172% and the Activity (B16 [3]) was “Active”. For the same molecule, the T/C (B16 [4]) was 151%, the Activity (L1210 [5]) was “Active” and the T/C (L1210 [6]) was 193%. The Activity (L1210 [7]) was “Active”, the T/C (L1210 [8]) was 180% and the Activity (P388 [9]) was “Active”. The T/C (P388 [10]) was 200%, the Activity (P388 [11]) was “Active” and the T/C (P388 [12]) was 155%. The Activity (B16 [13]) was “Active”, the T/C (B16 [14]) was 225% and the Activity (B16 [15]) was “Active”. For the same molecule, the T/C (B16 [16]) was 204%, the Activity (B16 [17]) was “Active” and the T/C (B16 [18]) was 194%. For the same molecule, the Activity (Colon 26 [19]) was “Active”, the T/C (Colon 26 [20]) was 201% and the Activity (Colon 26 [21]) was “Active”. For the same molecule, the T/C (Colon 26 [22]) was 177%, the Activity (Colon 26 [23]) was “Active” and the T/C (Colon 26 [24]) was 132%. For the same molecule, the Activity (L1210 [25]) was “Active”, the T/C (L1210 [26]) was 234% and the Activity (L1210 [27]) was “Active”. For the same molecule, the T/C (L1210 [28]) was 288%, the Activity (P388 [29]) was “Active” and the T/C (P388 [30]) was 321%. The Activity (P388 [31]) was “Active”, the T/C (P388 [32]) was 254% and the Activity (P388 [33]) was “Active”. The T/C (P388 [34]) was 219%.
